According to publication PMC10209615, “Pharmacological inhibition of LSD1 suppresses growth of hepatocellular carcinoma by inducing GADD45B” (MedComm, 2023):

Key:
Assay in all cases: Kinase activity detection (Eurofins)
Assay type in all cases: biochemical
Flt1 = biological target: T1, Flt1 (Homo sapiens, UniProt P17948); conditions: ZY0511 1 µM, read-out: Inhibition rate
T1 construct: purchased Eurofins Pharma Discovery Services (KinaseProfiler)
Experimental: (§1) The activity of ZY0511 against 104 cancer‐related kinases was carried out by Eurofins Pharma Discovery Services (Celle Lévescault, France).

ARK5 = biological target: T2, ARK5 (Homo sapiens, UniProt O60285); conditions: ZY0511 1 µM
T2 construct: purchased Eurofins Pharma Discovery Services (KinaseProfiler)
Experimental: as §1

EphA2 = biological target: T3, EphA2 (Homo sapiens, UniProt P29317); conditions: ZY0511 1 µM, read-out: Activation rate
T3 construct: purchased Eurofins Pharma Discovery Services (KinaseProfiler)
Experimental: as §1

PI3 Kinase (p110βγ/p85α) = biological target: T4, PI3 Kinase (p110βγ/p85α) (Homo sapiens, UniProt P42338); conditions: ZY0511 1 µM, read-out: Inhibition rate
T4 construct: purchased Eurofins Pharma Discovery Services (KinaseProfiler)
Experimental: as §1

Ret = biological target: T5, Ret (Homo sapiens, UniProt P07949); conditions: ZY0511 1 µM, read-out: Activation rate
T5 construct: purchased Eurofins Pharma Discovery Services (KinaseProfiler)
Experimental: as §1

cKit (V560G) = biological target: T6, cKit (V560G) (Homo sapiens, UniProt P10721, V560G); conditions: ZY0511 1 µM, read-out: Inhibition rate
T6 construct: purchased Eurofins Pharma Discovery Services (KinaseProfiler)
T6 sequence (P10721 26-976 V560G): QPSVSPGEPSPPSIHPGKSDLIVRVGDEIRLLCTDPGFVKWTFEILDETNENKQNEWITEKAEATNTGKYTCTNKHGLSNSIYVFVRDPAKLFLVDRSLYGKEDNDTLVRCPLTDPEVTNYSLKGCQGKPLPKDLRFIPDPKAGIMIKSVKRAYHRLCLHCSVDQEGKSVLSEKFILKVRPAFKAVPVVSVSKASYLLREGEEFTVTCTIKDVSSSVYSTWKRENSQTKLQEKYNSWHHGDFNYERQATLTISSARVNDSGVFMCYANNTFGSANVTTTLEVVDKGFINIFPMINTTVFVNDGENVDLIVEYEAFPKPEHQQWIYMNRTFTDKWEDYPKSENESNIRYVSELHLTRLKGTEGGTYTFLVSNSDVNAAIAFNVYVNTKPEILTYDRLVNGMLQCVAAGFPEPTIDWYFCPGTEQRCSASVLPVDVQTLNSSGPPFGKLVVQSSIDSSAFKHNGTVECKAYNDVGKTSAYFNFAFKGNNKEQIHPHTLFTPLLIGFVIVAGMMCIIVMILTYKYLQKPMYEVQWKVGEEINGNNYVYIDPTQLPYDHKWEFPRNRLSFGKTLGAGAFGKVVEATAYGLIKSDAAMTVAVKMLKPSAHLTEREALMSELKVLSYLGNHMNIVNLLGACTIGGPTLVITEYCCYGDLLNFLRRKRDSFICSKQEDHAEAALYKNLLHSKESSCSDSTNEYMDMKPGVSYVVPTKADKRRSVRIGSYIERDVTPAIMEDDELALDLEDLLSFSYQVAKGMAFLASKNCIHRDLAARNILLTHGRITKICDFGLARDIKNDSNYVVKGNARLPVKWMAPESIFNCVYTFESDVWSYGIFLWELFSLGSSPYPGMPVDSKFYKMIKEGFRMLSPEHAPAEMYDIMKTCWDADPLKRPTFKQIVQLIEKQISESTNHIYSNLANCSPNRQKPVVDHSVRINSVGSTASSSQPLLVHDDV
Experimental: as §1

FGFR4 = biological target: T7, FGFR4 (Homo sapiens, UniProt P22455); conditions: ZY0511 1 µM, read-out: Inhibition rate
T7 construct: purchased Eurofins Pharma Discovery Services
Experimental: as §1

Snk = biological target: T8, Snk (Homo sapiens, UniProt Q9NYY3); conditions: ZY0511 1 µM, read-out: Inhibition rate
T8 construct: purchased Eurofins Pharma Discovery Services (KinaseProfiler)
Experimental: as §1

PKCη = biological target: T9, PKCη (Homo sapiens, UniProt P24723); conditions: ZY0511 1 µM, read-out: Activation rate
T9 construct: purchased Eurofins Pharma Discovery Services (KinaseProfiler)
Experimental: as §1

Abl = biological target: T10, Abl (Homo sapiens, UniProt P00519); conditions: ZY0511 1 µM, read-out: Inhibition rate
T10 construct: purchased Eurofins Pharma Discovery Services
Experimental: as §1

PAK1 = biological target: T11, PAK1 (Homo sapiens, UniProt Q13153); conditions: ZY0511 1 µM, read-out: Activation rate
T11 construct: purchased Eurofins Pharma Discovery Services (KinaseProfiler)
Experimental: as §1

NIM1 = biological target: T12, NIM1 (Homo sapiens, UniProt Q8IY84); conditions: ZY0511 1 µM, read-out: Inhibition rate
T12 construct: purchased Eurofins Pharma Discovery Services
Experimental: as §1

BRK = biological target: T13, BRK (Homo sapiens, UniProt Q13882); conditions: ZY0511 1 µM, read-out: Inhibition rate
T13 construct: purchased Eurofins Pharma Discovery Services (KinaseProfiler)
Experimental: as §1

PI3 Kinase (p120γ) = biological target: T14, PI3 Kinase (p120γ) (Homo sapiens, UniProt P48736); conditions: ZY0511 1 µM, read-out: Inhibition rate
T14 construct: purchased Eurofins Pharma Discovery Services (KinaseProfiler)
Experimental: as §1

ErbB4 = biological target: T15, ErbB4 (Homo sapiens, UniProt Q15303); conditions: ZY0511 1 µM, read-out: Activation rate
T15 construct: purchased Eurofins Pharma Discovery Services (KinaseProfiler)
Experimental: as §1

PKCθ = biological target: T16, PKCθ (Homo sapiens, UniProt Q04759); conditions: ZY0511 1 µM, read-out: Inhibition rate
T16 construct: purchased Eurofins Pharma Discovery Services
Experimental: as §1

IGF-1R = biological target: T17, IGF-1R (Homo sapiens, UniProt P08069)
T17 construct: purchased Eurofins Pharma Discovery Services
T17 sequence (P08069 31-1367, species assumed): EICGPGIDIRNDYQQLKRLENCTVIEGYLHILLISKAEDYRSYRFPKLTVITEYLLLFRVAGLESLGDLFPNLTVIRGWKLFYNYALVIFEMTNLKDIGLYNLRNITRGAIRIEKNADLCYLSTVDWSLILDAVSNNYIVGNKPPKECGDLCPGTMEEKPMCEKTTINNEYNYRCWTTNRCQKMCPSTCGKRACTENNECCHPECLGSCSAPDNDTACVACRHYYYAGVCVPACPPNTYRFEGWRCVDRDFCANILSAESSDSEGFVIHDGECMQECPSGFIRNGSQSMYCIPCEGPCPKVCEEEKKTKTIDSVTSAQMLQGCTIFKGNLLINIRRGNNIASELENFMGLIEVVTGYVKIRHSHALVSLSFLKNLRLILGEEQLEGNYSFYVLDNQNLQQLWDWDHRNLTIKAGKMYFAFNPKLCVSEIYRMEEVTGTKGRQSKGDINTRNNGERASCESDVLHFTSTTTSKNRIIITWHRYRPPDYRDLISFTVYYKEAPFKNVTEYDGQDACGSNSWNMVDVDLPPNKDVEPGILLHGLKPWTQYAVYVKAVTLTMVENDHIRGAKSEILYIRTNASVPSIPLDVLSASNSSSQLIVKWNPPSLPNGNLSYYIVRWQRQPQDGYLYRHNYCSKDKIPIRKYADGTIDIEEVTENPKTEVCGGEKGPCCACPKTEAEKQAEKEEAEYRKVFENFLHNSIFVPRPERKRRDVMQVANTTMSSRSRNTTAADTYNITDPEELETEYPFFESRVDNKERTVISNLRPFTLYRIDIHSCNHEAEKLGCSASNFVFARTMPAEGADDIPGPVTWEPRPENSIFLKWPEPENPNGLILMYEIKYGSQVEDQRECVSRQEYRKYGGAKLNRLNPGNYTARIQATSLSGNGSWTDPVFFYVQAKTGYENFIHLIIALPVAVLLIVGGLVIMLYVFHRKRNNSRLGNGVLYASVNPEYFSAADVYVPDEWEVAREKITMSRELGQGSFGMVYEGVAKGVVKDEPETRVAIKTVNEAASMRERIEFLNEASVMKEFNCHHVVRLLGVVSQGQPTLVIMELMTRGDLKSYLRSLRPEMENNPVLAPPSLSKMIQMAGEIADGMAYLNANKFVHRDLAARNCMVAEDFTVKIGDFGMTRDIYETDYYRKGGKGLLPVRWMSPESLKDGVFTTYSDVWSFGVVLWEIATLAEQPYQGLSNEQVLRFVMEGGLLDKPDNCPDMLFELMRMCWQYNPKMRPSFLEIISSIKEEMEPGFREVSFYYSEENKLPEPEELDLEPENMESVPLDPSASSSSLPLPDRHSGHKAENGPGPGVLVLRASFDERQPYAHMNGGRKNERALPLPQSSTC
Experimental: as §1

CSK = biological target: T18, CSK (Homo sapiens, UniProt P41240); conditions: ZY0511 1 µM, read-out: Inhibition rate
T18 construct: purchased Eurofins Pharma Discovery Services (KinaseProfiler)
Experimental: as §1

PDGFRα = biological target: T19, PDGFRα (Homo sapiens, UniProt P16234); conditions: ZY0511 1 µM, read-out: Activation rate
T19 construct: purchased Eurofins Pharma Discovery Services (KinaseProfiler)
Experimental: as §1

PI3 Kinase (p110α/p85α) = biological target: T20, PI3 Kinase (p110α/p85α) (Homo sapiens, UniProt P42336); conditions: ZY0511 1 µM, read-out: Inhibition rate
T20 construct: purchased Eurofins Pharma Discovery Services (KinaseProfiler)
Experimental: as §1

PDGFRα (D842V) = biological target: T21, PDGFRα (D842V) (Homo sapiens, UniProt P16234, D842V); conditions: ZY0511 1 µM, read-out: Activation rate
T21 construct: purchased Eurofins Pharma Discovery Services (KinaseProfiler)
Experimental: as §1

CK1γ3 = biological target: T22, CK1γ3 (Homo sapiens, UniProt Q9Y6M4); conditions: ZY0511 1 µM, read-out: Inhibition rate
T22 construct: purchased Eurofins Pharma Discovery Services (KinaseProfiler)
Experimental: as §1

PKCε = biological target: T23, PKCε (Homo sapiens, UniProt Q02156); conditions: ZY0511 1 µM, read-out: Inhibition rate
T23 construct: purchased Eurofins Pharma Discovery Services (KinaseProfiler)
Experimental: as §1

FAK = biological target: T24, FAK (Homo sapiens, UniProt Q05397); conditions: ZY0511 1 µM, read-out: Inhibition rate
T24 construct: purchased Eurofins Pharma Discovery Services
Experimental: as §1

DNA-PK = biological target: T25, DNA-PK (Homo sapiens, UniProt P78527)
T25 construct: purchased Eurofins Pharma Discovery Services
Experimental: as §1

B-Raf = biological target: T26, B-Raf (Homo sapiens, UniProt P15056); conditions: ZY0511 1 µM, read-out: Inhibition rate
T26 construct: purchased Eurofins Pharma Discovery Services (KinaseProfiler)
Experimental: as §1

CHK2 = biological target: T27, CHK2 (Homo sapiens, UniProt O96017); conditions: ZY0511 1 µM, read-out: Activation rate
T27 construct: purchased Eurofins Pharma Discovery Services (KinaseProfiler)
Experimental: as §1

Ros = biological target: T28, Ros (Homo sapiens, UniProt P08922); conditions: ZY0511 1 µM, read-out: Inhibition rate
T28 construct: purchased Eurofins Pharma Discovery Services
Experimental: as §1

CDK5/p35 = biological target: T29, CDK5/p35 (Homo sapiens, UniProt Q00535); conditions: ZY0511 1 µM, read-out: Inhibition rate
T29 construct: purchased Eurofins Pharma Discovery Services (KinaseProfiler)
Experimental: as §1

[1] = biological target: T30, PI3 Kinase (p110α (E542K)/p85α) (Homo sapiens, UniProt P42336, E542K); conditions: ZY0511 1 µM, read-out: Inhibition rate
T30 construct: purchased Eurofins Pharma Discovery Services
Experimental: as §1

KDR = biological target: T31, KDR (Homo sapiens, UniProt P35968); conditions: ZY0511 1 µM, read-out: Inhibition rate
T31 construct: purchased Eurofins Pharma Discovery Services (KinaseProfiler)
T31 sequence (P35968 20-1356): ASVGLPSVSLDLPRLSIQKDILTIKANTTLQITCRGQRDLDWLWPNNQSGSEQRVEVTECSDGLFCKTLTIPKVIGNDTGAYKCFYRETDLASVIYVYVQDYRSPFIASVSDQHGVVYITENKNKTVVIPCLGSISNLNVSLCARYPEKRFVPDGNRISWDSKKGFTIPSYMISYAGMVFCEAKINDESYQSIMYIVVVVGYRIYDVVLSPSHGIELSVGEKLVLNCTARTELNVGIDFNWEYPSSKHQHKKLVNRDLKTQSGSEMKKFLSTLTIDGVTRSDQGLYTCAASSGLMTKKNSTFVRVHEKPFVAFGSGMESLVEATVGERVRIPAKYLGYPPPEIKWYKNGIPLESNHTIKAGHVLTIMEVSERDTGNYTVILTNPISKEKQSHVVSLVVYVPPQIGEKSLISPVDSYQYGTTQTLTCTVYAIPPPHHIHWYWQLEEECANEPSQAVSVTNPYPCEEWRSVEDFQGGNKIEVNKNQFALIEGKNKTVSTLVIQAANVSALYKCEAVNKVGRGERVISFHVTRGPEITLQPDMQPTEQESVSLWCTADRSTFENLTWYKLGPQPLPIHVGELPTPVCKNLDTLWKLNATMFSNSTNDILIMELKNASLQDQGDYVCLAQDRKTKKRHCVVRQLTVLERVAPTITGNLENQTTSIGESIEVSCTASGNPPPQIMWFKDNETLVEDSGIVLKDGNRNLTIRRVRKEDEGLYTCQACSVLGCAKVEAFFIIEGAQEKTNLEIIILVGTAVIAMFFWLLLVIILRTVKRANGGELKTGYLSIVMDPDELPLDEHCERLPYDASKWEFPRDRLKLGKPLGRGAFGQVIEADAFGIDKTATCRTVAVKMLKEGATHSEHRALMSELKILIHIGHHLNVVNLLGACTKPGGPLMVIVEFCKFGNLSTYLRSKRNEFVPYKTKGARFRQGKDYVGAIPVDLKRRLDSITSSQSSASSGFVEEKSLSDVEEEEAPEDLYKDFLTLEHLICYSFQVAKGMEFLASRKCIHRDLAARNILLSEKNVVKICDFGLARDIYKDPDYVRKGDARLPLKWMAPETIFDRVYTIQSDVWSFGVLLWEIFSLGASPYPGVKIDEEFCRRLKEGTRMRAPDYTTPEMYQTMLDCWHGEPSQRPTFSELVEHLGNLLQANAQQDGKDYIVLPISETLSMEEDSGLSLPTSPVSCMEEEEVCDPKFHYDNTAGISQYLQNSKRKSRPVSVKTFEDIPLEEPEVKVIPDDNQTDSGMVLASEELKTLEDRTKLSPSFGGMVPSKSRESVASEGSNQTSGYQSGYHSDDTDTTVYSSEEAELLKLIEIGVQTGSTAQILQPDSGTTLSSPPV
Experimental: as §1

FGFR2 = biological target: T32, FGFR2 (Homo sapiens, UniProt P21802); conditions: ZY0511 1 µM, read-out: Inhibition rate
T32 construct: purchased Eurofins Pharma Discovery Services
Experimental: as §1

CDK2/cyclinA = biological target: T33, CDK2/cyclinA (Homo sapiens, UniProt P24941); conditions: ZY0511 1 µM, read-out: Inhibition rate
T33 construct: purchased Eurofins Pharma Discovery Services
Experimental: as §1

cSRC = biological target: T34, cSRC (Homo sapiens, UniProt P12931); conditions: ZY0511 1 µM, read-out: Activation rate
T34 construct: purchased Eurofins Pharma Discovery Services (KinaseProfiler)
T34 sequence (P12931 whole entry): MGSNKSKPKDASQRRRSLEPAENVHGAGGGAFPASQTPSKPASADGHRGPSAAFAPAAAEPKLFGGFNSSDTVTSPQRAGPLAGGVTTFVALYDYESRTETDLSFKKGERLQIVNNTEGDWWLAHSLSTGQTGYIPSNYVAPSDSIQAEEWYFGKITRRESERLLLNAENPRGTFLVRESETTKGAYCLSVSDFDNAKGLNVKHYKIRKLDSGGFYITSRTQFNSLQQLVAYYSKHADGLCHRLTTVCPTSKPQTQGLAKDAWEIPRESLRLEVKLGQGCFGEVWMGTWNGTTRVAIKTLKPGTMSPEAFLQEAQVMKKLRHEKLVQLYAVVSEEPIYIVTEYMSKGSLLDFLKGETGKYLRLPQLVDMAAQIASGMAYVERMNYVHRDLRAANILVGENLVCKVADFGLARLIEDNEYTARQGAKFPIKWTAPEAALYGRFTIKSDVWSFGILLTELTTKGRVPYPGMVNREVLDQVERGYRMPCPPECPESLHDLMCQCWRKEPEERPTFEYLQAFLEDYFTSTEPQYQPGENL
Experimental: as §1

Flt3 (D835Y) = biological target: T35, Flt3 (D835Y) (Homo sapiens, UniProt P36888, D835Y); conditions: ZY0511 1 µM, read-out: Inhibition rate
T35 construct: purchased Eurofins Pharma Discovery Services
Experimental: as §1

LKB1 = biological target: T36, LKB1 (Homo sapiens, UniProt Q15831); conditions: ZY0511 1 µM, read-out: Inhibition rate
T36 construct: purchased Eurofins Pharma Discovery Services (KinaseProfiler)
Experimental: as §1

Abl (T315I) = biological target: T37, Abl (T315I) (Homo sapiens, UniProt P00519, T315I); conditions: ZY0511 1 µM, read-out: Inhibition rate
T37 construct: purchased Eurofins Pharma Discovery Services
Experimental: as §1

DDR2 = biological target: T38, DDR2 (Homo sapiens, UniProt Q16832); conditions: ZY0511 1 µM, read-out: Inhibition rate
T38 construct: purchased Eurofins Pharma Discovery Services (KinaseProfiler)
Experimental: as §1

Aurora-A = biological target: T39, Aurora-A (Homo sapiens, UniProt O14965); conditions: ZY0511 1 µM, read-out: Inhibition rate
T39 construct: purchased Eurofins Pharma Discovery Services (KinaseProfiler)
Experimental: as §1

DCAMKL3 = biological target: T40, DCAMKL3 (Homo sapiens, UniProt Q9C098); conditions: ZY0511 1 µM, read-out: Inhibition rate
T40 construct: purchased Eurofins Pharma Discovery Services
T40 sequence (Q9C098 whole entry, species assumed): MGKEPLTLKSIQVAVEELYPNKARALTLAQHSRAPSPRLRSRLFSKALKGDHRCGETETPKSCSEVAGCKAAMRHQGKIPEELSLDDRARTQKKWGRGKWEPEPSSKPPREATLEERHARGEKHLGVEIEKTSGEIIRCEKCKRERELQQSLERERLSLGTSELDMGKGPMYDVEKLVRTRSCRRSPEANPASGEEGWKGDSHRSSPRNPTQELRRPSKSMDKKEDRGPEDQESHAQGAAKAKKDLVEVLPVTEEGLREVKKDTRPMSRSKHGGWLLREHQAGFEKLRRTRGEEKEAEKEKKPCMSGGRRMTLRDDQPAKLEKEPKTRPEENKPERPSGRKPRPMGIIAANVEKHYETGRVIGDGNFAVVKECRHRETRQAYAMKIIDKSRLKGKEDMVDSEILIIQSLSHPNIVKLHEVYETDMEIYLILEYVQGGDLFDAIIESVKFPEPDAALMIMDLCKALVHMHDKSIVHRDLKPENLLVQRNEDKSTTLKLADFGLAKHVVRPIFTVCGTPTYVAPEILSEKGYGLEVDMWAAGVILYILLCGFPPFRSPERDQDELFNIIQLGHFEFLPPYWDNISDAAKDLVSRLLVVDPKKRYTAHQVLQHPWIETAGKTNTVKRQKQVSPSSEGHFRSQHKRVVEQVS
Experimental: as §1

Work on `O=C(N/N=C1\CCc2c(Cl)ccc(O)c21)c1cccc(S(=O)(=O)N2CCOCC2)c1` [ZY0511, (E)‐N'‐(2, 3‐dihydro‐1H‐inden‐1‐ylidene) benzohydrazides] yielded an inhibition at 1 µM (Flt1) of 20%, an Activation rate (ARK5) of 6% and an activation at 1 µM (EphA2) of 5%. It also gave an inhibition at 1 µM (PI3 Kinase (p110βγ/p85α)) of 8%, an activation at 1 µM (Ret) of 15% and an inhibition at 1 µM (cKit (V560G)) of 7%. It also gave an inhibition at 1 µM (FGFR4) of 14%, an inhibition at 1 µM (Snk) of 4% and an activation at 1 µM (PKCη) of 2%. It also gave an inhibition at 1 µM (Abl) of 13%, an activation at 1 µM (PAK1) of 1% and an inhibition at 1 µM (NIM1) of 2%. The inhibition at 1 µM (BRK) was 4%, the inhibition at 1 µM (PI3 Kinase (p120γ)) was 10% and the activation at 1 µM (ErbB4) was 10%. For the same compound, the inhibition at 1 µM (PKCθ) was 3%, the activation at 1 µM (IGF-1R; IGF-1R, ZY0511 1 µM, read-out: Activation rate) was 185% and the IC50 (IGF-1R; IGF‐1R) was over 10 µM. It also gave an inhibition at 1 µM (CSK) of 4%, an activation at 1 µM (PDGFRα) of 33% and an inhibition at 1 µM (PI3 Kinase (p110α/p85α)) of 6%. It also gave an activation at 1 µM (PDGFRα (D842V)) of 2%, an inhibition at 1 µM (CK1γ3) of 21% and an inhibition at 1 µM (PKCε) of 8%. It also gave an inhibition at 1 µM (FAK) of 3%, an inhibition at 1 µM (DNA-PK; DNA-PK, ZY0511 1 µM, read-out: Inhibition rate) of 60% and an IC50 (DNA-PK; DNA‐PK) of over 10 µM. It also gave an inhibition at 1 µM (B-Raf) of 29%, an activation at 1 µM (CHK2) of 2% and an inhibition at 1 µM (Ros) of 11%. The inhibition at 1 µM (CDK5/p35) was 9%, the inhibition at 1 µM [1] was 2% and the inhibition at 1 µM (KDR) was 30%. The inhibition at 1 µM (FGFR2) was 11%, the inhibition at 1 µM (CDK2/cyclinA) was 10% and the activation at 1 µM (cSRC) was 4%. It also gave an inhibition at 1 µM (Flt3 (D835Y)) of 11%, an inhibition at 1 µM (LKB1) of 15% and an inhibition at 1 µM (Abl (T315I)) of 1%. The inhibition at 1 µM (DDR2) was 5%, the inhibition at 1 µM (Aurora-A) was 17% and the inhibition at 1 µM (DCAMKL3) was 3%.
